US20140148446A1, “COMPOUNDS THAT ENABLE ALTERNATIVE MITOCHONDRIAL ELECTRON TRANSFER” (University of North Texas Health Science Center, priority 2010, published 2014)

What was measured:
HT-22 cells [1] = assay: Protection against cell death (cell viability) induced by glutamate in HT-22 cells; format: cell-based; settings: Mus musculus
Experimental: HT-22 cells (gift from Dr. David Schubert, Salk Institute, San Diego, Calif.) were plated at 4,000 cells per well in 96 well plates and cultured over night. […] At the end of the 24 hours, the medium was removed and the plates were rinsed with PBS and incubated with 10 μM calcein-AM (Invitrogen, Carlsbad, Calif.) in PBS for 20 minutes. […] Cell culture wells treated with bleach before rinsing were used as blank.

HT-22 cells [2] = assay: Protection against mitochondrial membrane potential collapse induced by glutamate in HT-22 cells; format: cell-based; settings: Mus musculus
HT-22 cells [3] = assay: Seahorse XF-24 metabolic flux analysis (OCR, ECAR); format: cell-based
Experimental: HT22 cells were plated at 8,000/well and cultured on Seahorse XF-24 plates. Cells were grown in previously described medium and environments for 24 hr. On the day of metabolic flux analysis, cells were changed to unbuffered DMEM (DMEM base medium supplemented with 25 mM glucose, 10 mM sodium pyruvate, 31 mM NaCl, 2 mM GlutaMax, pH 7.4) and incubated at 37° C. in a non-CO2 incubator for 1 hr. All medium and injection reagents were adjusted to pH 7.4 on the day of assay. Four baseline measurements of oxygen consumption rate (OCR) and extracellular acidification rate (ECAR) were taken before sequential injection of mitochondrial inhibitors. Specific readings indicated by the arrows were taken after each addition of mitochondrial inhibitor before injection of the subsequent inhibitors. The mitochondrial inhibitors used were oligomycin (10 μM), FCCP (1 μM), and rotenone (5 μM). OCR and ECAR were automatically calculated and recorded by the Seahorse XF-24 software. After the assays, plates were saved and protein readings were measured for each well to confirm equal cell numbers per well. The percentage of change compared with the basal rates was calculated as the value of change divided by the average value of baseline readings.

[4] = test system: mitochondrial complex I-III; format: biochemical, rat
Experimental: (§1) Fresh rat heart was removed and placed in ice-cold mitochondrial isolation buffer containing 210 mM mannitol, 70 mM sucrose, 5 mM HEPES, and 1 mM EDTA, pH 7. The heart was homogenized immediately, and the mitochondrial fraction was isolated by differential centrifugation as described previously (Trounce et al., 1996). Mitochondria were stored at −80° C. until subsequent analysis.
(§2) All mitochondrial activity assays were performed according to previous publications with minimal modifications for complex I (Lenaz et al., 2004), complex I-III, complex II, complex III, and II-III (Trounce et al., 1996). […] Complex I activity was monitored by adding NADH to the mix with or without rotenone/antimycin A. The final data were normalized to blank values at time zero. The reaction was monitored in a kinetic spectrophotometer at 340 nm. Complex I activity was measured in arbitrary units and normalized to control levels for statistical analysis. Isolated mitochondria equivalent to 40-200 μg mitochondrial protein was used for each assay, except for assays with inhibitors, when larger amount of mitochondria (3 to 5 folds) were used to ensure that inhibition was distinguishable. Final data were normalized to control levels. For complex I-III activity, the reaction was initiated with the addition of NADH, cyt c was used as final substrate and its reduction was monitored at 550 nm. For assay of complex II-III activity, succinate was added instead of NADH, and the electron transfer to cyt c was performed according to previous publications (Atamna et al., 2008). To test whether the electrons from the reduced form of MB (MBH2) can be transferred to cyt c in mitochondrial lysate, we added 10 μM 2,7-dichlorofluorescin (DCFH, Invitrogen, Carlsbad, Calif.) to the reaction system. Free radicals convert non-fluorescent DCFH to highly fluorescent DCF (Ex, 488 nm, and Em, 530 nm). In the presence of cyt c, which accepts electrons from MBH2, conversion of DCFH to DCF is decreased.

mitochondrial complex I = assay: Mitochondrial complex I activity assay (NADH dehydrogenase); format: biochemical, rat; settings: in place of CoQ1
Experimental: as §1, §2

mitochondrial complex II = biological target: T1, mitochondrial complex II (Rattus norvegicus, UniProt P21913+Q641Z9+Q6PCT8+Q920L2); assay: Mitochondrial complex II activity assay; format: biochemical; settings: data not shown
T1 construct: the mitochondrial fraction was isolated by differential centrifugation; from tissue; host or cells: rat heart mitochondria
Experimental: as §1
All mitochondrial activity assays were performed according to previous publications with minimal modifications for complex I (Lenaz et al., 2004), complex I-III, complex II, complex III, and II-III (Trounce et al., 1996). […] Complex I activity was monitored by adding NADH to the mix with or without rotenone/antimycin A. The final data were normalized to blank values at time zero. The reaction was monitored in a kinetic spectrophotometer at 340 nm. Complex I activity was measured in arbitrary units and normalized to control levels for statistical analysis. Isolated mitochondria equivalent to 40-200 μg mitochondrial protein was used for each assay, except for assays with inhibitors, when larger amount of mitochondria (3 to 5 folds) were used to ensure that inhibition was distinguishable. Final data were normalized to control levels. For complex I-III activity, the reaction was initiated with the addition of NADH, cyt c was used as final substrate and its reduction was monitored at 550 nm. […]

HT-22 cells [5] = assay: Cell viability assay, rotenone induced cytotoxicity; format: cell-based; settings: rotenone 8 μM, 100 ng/ml MB co-treatment; vehicle 25.4±1.6%
Experimental: Then cells were treated with vehicle (DMSO), rotenone (2-8 μM), antimycin A (1-10 μg/ml), or glucose oxidase (2-10 mU) in the presence or absence of various concentrations of MB for 24 hours. At the end of the 24 hours, the medium was removed and the plates were rinsed with PBS and incubated with 10 μM calcein-AM (Invitrogen, Carlsbad, Calif.) in PBS for 20 minutes. Fluorescence was determined using a TECAN M200 microplate reader (San Jose, Calif.) with an excitation/emission set at 485/530 nm. Cell culture wells treated with bleach before rinsing were used as blank.

HT-22 cells [6] = assay: Cell viability assay, H2O2 (glucose oxidase) induced cytotoxicity; format: cell-based
HT-22 cells [7] = assay: Mitochondrial superoxide and cellular ROS analysis, rotenone treated cells; format: cell-based; settings: MB 100 ng/ml
Experimental: Mitochondrial specific superoxide and cellular ROS were measured with specific fluorescent probes. Briefly, HT-22 cells were treated with vehicle or 2 μM rotenone, with or without 100 ng/ml MB for 4 hr. The cells were dissociated, then incubated in pre-warmed PBS containing 0.5% BSA and H2DCFDA (Cellular ROS) or MitoSox (mitochondrial superoxide) for 15 min at 37° C., followed by washing with PBS. The cells were then resuspended in supplemented RPMI-1640 for further incubation. The cells were analyzed with FITC channel (Cellular ROS), or PE channel (MitoSox) using a BD™ LSRII flow cytometer.

[8] = test system: rotenone induced rat model of PD; assay: Rotenone model of PD: body weight, neurological and behavioral assessment; format: in vivo; settings: MB 500 μg/kg/day i.p.
Experimental: (§3) Rats were assigned to three groups: control animals received vehicle infusion and daily saline injection (Veh/Sal N=6-8); a second group received rotenone infusion at the dose of 5 mg/kg/day and daily saline injection (ROT/Saline N=8-11); and the third group received rotenone infusion (5 mg/kg/day) and MB injection at the dose of 500 μg/kg/day (ROT/MB N=8-10). Vehicle or rotenone was infused via Alzet osmotic mini pumps that were filled with vehicle or rotenone dissolved in vehicle (equal volumes of dimethylsulfoxide and polyethylene glycol). Pumps containing vehicle or rotenone were sterilized with UV irradiation and implanted subcutaneously on the back. Intraperitoneal injections were administered with normal saline or MB, 500 μg/kg/day, diluted in normal saline to 500 μl of final volume. Rats were sacrificed on day 8 at four hours after last dose of MB or saline treatment.
The accelerating rotarod, a motor driven treadmill (Omnitech Electronics, Columbus, Ohio) measures running coordination and motor performance. The rotor consisted of a nylon cylinder with a 7 cm diameter mounted horizontally 35.5 cm above a padded surface. On a given trial, the rats were placed on the cylinder, the cylinder was rotated, and a timer switch was simultaneously activated. Acceleration continued from 0 to a maximum of 44 rpm until animals were unable to stay on top of the rotating rod and fell to the padded surface. […] When the rat landed on the surface, a photosensitive switch was tripped and the timer stopped. Rats were subjected to this test two sessions a day, three trials per session, for 7 sessions. A 20-minute resting period was given between each trial. Animals were given at least two hours break time between sessions each day. Retention times on the rotating treadmill were recorded and plotted for analysis.
Neurological assessment was performed by three evaluators blind to treatment conditions. The evaluators were initially trained until they produced consistent scores when evaluating rats in these tests. Subsequently, experimental subjects were randomized and presented to the evaluators individually. For each session, which consisted of three trials, an individual evaluator scored a rat in only one trial; thus, the final score for a session for each animal was the average score of the three evaluators. The category included: tremor; locomotion; bradykinesia; hypokinesia; posture; and gross motor skills.
Catalepsy was measured by standard bar test and grid test adapted from previous publication. For bar test, the rats were placed with both front paws grasp on a horizontal bar which was 9 cm above the surface. The time, each animal took to remove one paw from the bar was manually measured by a stopwatch. For grid test, rats were placed on a vertical wire grid (25.5 cm width and 44 cm high with a space of 1 cm between each wire) and catalepsy was determined by the length of time the animals maintained all four paws on the grid using a stopwatch. The maximum descent latency was set at 300 seconds for the bar test and 60 seconds for grid test.
For gait analysis, the fore and hind paws of each rat were painted with blue and red dye, respectively. The animals were allowed to walk across an absorbent paper covered straight alley runway (150 cm long, 20 cm wide, opaque walls 20 cm tall) into a dark compartment. Before the test, animals were put in the dark compartment for 2 minutes to habituate to the environment and 3 pre-training runs were conducted for all rats. Three trials were conducted to obtain clear footprints for each animal. Prolonged stop or turning backward in the runway was considered failed trials. The distance of individual steps were analyzed by two independent blinded observers.

[9] = test system: transient MCA occlusion in rats; assay: Transient focal cerebral ischemia (MCA occlusion); format: in vivo; settings: rat, single dosage of MB at 500 μg/kg, 24 hr after reperfusion
From the text: Transient focal cerebral ischemia was induced by intraluminal filament MCA occlusion (Liu et al., 2005). Briefly, the left internal carotid artery (ICA) was exposed, and a 3-0 monofilament nylon suture was introduced into the ICA lumen through a puncture and gently advanced to the distal ICA until proper resistance was felt. After 1 hr, the suture was withdrawn for reperfusion. At 24 hr after reperfusion, the animals were sacrificed and the brain harvested. The brains were sectioned at 3, 5, 7, 9, 11, 13 and 15 mm posterior to the olfactory bulb. Each slice was incubated 30 min in 2% 2,3,5-triphenyltetrazolium chloride (TTC) in physiological saline, then fixed in 10% formalin. The stained slices were digitally photographed for measurement of ischemic lesion volume (Image-Pro Plus 4.1).

[10] = test system: preclinical animal model of Alzheimer's disease; assay: Preclinical animal model of Alzheimer's disease, MB supplemented diet; format: in vivo; settings: long term feeding of MB supplemented diet
[11] = test system: rotenone induced rat model of PD
Experimental: as §3
After completion of neurological assessments and behavioral tests, rats were killed on the 8th day of rotenone infusion under anesthesia induced by xylazine (20 mg/kg, i.p.) and ketamine (100 mg/kg, i.p.). All osmotic pumps were checked for the residual liquid to ensure proper drug delivery. One hemisphere was fixed by 4% paraformaldehyde in phosphate buffer for 48 hr until processing for sectioning. The other hemisphere was snap-frozen in liquid nitrogen, and kept at −80° C. until extraction for biochemical analysis.
Rat hemispheres were sequentially incubated in 10%, 20% and 30% sucrose over night. The brains were then frozen in optimal cutting temperature) compound (VWR, San Francisco Calif.) and sectioned in the coronal plane with a cryostat to produce 20 μm floating sections. For single immunohistochemistry studies, 20-μm sections were blocked with 5% normal goat serum and incubated in primary antibodies at 4° C. over night. […] Double stained sections were examined with conventional fluorescence microscopy, and images were captured on a Zeiss microscope linked to an image analysis system with selective filter sets to visualize FITC, rhodamine, and DAPI separately. […]

[12] = pH 7.0; cited from earlier work

T1 sequence (Q920L2 35-656): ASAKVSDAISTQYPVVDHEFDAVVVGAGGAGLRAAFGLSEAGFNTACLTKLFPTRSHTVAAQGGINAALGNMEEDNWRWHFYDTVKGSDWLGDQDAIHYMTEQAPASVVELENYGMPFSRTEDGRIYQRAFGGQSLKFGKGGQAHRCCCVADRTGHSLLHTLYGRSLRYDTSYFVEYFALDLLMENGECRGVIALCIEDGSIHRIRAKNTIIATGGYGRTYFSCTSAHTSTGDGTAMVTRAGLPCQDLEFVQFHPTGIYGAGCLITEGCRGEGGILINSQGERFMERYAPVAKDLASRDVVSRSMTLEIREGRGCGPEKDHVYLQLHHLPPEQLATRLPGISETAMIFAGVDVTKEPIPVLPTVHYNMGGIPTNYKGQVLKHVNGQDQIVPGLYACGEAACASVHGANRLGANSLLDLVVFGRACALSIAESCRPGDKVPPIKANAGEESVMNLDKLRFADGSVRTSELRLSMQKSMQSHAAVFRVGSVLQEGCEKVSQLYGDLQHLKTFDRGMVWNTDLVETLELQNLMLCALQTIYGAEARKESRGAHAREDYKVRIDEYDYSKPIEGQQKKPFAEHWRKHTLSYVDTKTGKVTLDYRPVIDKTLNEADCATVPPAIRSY
T1 sequence (P21913 31-282): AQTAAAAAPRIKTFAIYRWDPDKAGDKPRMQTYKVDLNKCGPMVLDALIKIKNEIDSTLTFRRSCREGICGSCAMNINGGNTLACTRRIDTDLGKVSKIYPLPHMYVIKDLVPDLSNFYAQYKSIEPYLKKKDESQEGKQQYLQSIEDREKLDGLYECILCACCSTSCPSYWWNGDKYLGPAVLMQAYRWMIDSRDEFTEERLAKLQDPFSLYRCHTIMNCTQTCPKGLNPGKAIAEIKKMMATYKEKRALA
T1 sequence (Q641Z9 1-169): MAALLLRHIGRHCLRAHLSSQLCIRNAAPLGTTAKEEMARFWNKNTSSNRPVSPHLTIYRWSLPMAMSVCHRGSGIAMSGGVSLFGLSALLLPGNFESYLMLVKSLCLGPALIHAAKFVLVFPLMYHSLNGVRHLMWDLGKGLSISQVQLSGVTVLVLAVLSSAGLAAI
T1 sequence (Q6PCT8 57-159): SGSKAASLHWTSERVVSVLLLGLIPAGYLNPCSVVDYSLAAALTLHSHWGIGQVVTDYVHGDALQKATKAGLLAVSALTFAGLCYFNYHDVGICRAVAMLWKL

Compound `CN(C)c1ccc2nc3ccc(=[N+](C)C)cc-3sc2c1` [methylene blue] has an EC50 (HT-22 cells [1]; HT-22, glutamate toxicity, HT22 cells, read-out: EC50 against glutamate toxicity in HT22 cells) of 0.176 nM, an EC50 (HT-22 cells [1]; glutamate, HT-22 cells, read-out: Protection against cell death (EC50)) of 18.8 nM and an EC50 (HT-22 cells [2]) of 17.7 nM. The “Extracellular acidification rate (ECAR)” value (HT-22 cells [3]; 10 μg/ml MB, two hour incubation, vehicle 44±4) was 9±3 mPH/min, the “Oxygen consumption rate (OCR)” value (HT-22 cells [3]; 10 μg/ml MB, two hour incubation, vehicle 264±10) was 594 ± 19 pmol/min and the “Rotenone induced OCR inhibition” value (HT-22 cells [3]; rotenone 5 μM injection) was “dose-dependently attenuated”. For the same compound, the “Complex I-III activity, % of the control level” value ([4]; 1 μg/ml MB, in the presence of antimycin A) was 674±99%, the “Complex I-III activity, % of control” value ([4]; 1 μg/ml MB, in the presence of rotenone) was 118.1±6.4% and the “Increase of complex I-III activity” value ([4]; increasing doses of MB (0.1-1 μg/ml)) was “up to nine-fold increase”. For the same compound, the “Substrate of NADH dehydrogenase in complex I (accepts electrons from NADH)” value (mitochondrial complex I) was “can completely replace CoQ1 as a direct substrate”, the “Effect on complex II activity alone” value (mitochondrial complex II) was “no significant effect” and the Cell survival (HT-22 cells [5]) was 60.5±4.5%. The “Protection against H2O2 induced oxidative damage” value (HT-22 cells [6]) was “failed to protect”, the “Increase of mitochondrial superoxide (MitoSox probe)” value (HT-22 cells [7]) was “almost completely blocked” and the “Increase of total cellular ROS (DCFH2-DA)” value (HT-22 cells [7]) was “almost completely blocked”. The “Catalepsy, bar test descent latency” value [8] was “completely reversed”, the “Catalepsy, grid test latency to fall” value [8] was “attenuated” and the “Neurological scores (randomized blinded assessment)” value [8] was “significantly improved”. The Rotarod performance deficits [8] was “almost completely prevented”, the “Rotenone induced body weight loss” value [8] was “attenuated” and the “Stride length in gait analysis” value [8] was “improved”. The Ischemic lesion volume [9] was “significantly reduced”, the Cognitive functions [10] was “improves cognitive functions” and the Maximal performance [10] was “improves maximal performance”. For the same compound, the “TH-positive cells and nerve fiber in SNC and VTN” value ([11]; ROT/MB animals) was “a sufficient amount of TH-positive cell and nerve fiber were observed”, the “Fluoro-jade B-positive TH neurons” value ([11]; ROT/MB group, 4 out of 11 ROT/Sal animals positive) was “not found” and the “Ubiquitin positive inclusion bodies” value ([11]; ROT/MB group, 6 out 11 ROT/Sal rats positive) was “not found”. The Redox potential [12] was 11 mV.
